Laboratory results: patent publication US9315498B2, “Arlethynyl derivatives” (Hoffmann-La Roche Inc., priority 2010, dated 2016)

Molecular target: human mGlu5a receptor (Homo sapiens (Human), UniProt P41594)
Experiment: Intracellular Ca2+ mobilization assay (mGlu5 PAM)
Format: cell-based
Conditions: for EC50: HEK-293 cells stably transfected with human mGlu5a, L-glutamate added at EC20 after pre-incubation with test compound, read-out: EC50 (nM) mGlu5PAM; for Emax: maximal response in % of the maximal stimulatory effect obtained with saturating concentrations of L-glutamate, read-out: Eff. (%)
Protocol: A monoclonal HEK-293 cell line stably transfected with a cDNA encoding for the human mGlu5a receptor was generated; for the work with mGlu5 Positive Allosteric Modulators (PAMs), a cell line with low receptor expression levels and low constitutive receptor activity was selected to allow the differentiation of agonistic versus PAM activity. Cells were cultured according to standard protocols (Freshney, 2000) in Dulbecco's Modified Eagle Medium with high glucose supplemented with 1 mM glutamine, 10% (vol/vol) heat-inactivated bovine calf serum, Penicillin/Streptomycin, 50 μg/ml hygromycin and 15 μg/ml blasticidin (all cell culture reagents and antibiotics from Invitrogen, Basel, Switzerland).
About 24 hrs before an experiment, 5×10^4 cells/well were seeded in poly-D-lysine coated, black/clear-bottomed 96-well plates. The cells were loaded with 2.5 μM Fluo-4AM in loading buffer (1×HBSS, 20 mM HEPES) for 1 hr at 37° C. and washed five times with loading buffer. The cells were transferred into a Functional Drug Screening System 7000 (Hamamatsu, Paris, France), and 11 half logarithmic serial dilutions of test compound at 37° C. were added and the cells were incubated for 10-30 min. with on-line recording of fluorescence. Following this pre-incubation step, the agonist L-glutamate was added to the cells at a concentration corresponding to EC20 (typically around 80 μM) with on-line recording of fluorescence; in order to account for day-to-day variations in the responsiveness of cells, the EC20 of glutamate was determined immediately ahead of each experiment by recording of a full dose-response curve of glutamate.
Responses were measured as peak increase in fluorescence minus basal (i.e. fluorescence without addition of L-glutamate), normalized to the maximal stimulatory effect obtained with saturating concentrations of L-glutamate. Graphs were plotted with the % maximal stimulatory using XLfit, a curve fitting program that iteratively plots the data using Levenburg Marquardt algorithm. The single site competition analysis equation used was y=A+((B−A)/(1+((x/C)D))), where y is the % maximal stimulatory effect, A is the minimum y, B is the maximum y, C is the EC50, x is the log10 of the concentration of the competing compound and D is the slope of the curve (the Hill Coefficient). From these curves the EC50 (concentration at which half maximal stimulation was achieved), the Hill coefficient as well as the maximal response in % of the maximal stimulatory effect obtained with saturating concentrations of L-glutamate were calculated.
A depression of the signal observed after addition of the EC20 concentration of L-glutamate was indicative of an inhibitory activity of the test compound.

Sequence of human mGlu5a receptor (P41594 other isoform, or with tags, fused parts or gaps): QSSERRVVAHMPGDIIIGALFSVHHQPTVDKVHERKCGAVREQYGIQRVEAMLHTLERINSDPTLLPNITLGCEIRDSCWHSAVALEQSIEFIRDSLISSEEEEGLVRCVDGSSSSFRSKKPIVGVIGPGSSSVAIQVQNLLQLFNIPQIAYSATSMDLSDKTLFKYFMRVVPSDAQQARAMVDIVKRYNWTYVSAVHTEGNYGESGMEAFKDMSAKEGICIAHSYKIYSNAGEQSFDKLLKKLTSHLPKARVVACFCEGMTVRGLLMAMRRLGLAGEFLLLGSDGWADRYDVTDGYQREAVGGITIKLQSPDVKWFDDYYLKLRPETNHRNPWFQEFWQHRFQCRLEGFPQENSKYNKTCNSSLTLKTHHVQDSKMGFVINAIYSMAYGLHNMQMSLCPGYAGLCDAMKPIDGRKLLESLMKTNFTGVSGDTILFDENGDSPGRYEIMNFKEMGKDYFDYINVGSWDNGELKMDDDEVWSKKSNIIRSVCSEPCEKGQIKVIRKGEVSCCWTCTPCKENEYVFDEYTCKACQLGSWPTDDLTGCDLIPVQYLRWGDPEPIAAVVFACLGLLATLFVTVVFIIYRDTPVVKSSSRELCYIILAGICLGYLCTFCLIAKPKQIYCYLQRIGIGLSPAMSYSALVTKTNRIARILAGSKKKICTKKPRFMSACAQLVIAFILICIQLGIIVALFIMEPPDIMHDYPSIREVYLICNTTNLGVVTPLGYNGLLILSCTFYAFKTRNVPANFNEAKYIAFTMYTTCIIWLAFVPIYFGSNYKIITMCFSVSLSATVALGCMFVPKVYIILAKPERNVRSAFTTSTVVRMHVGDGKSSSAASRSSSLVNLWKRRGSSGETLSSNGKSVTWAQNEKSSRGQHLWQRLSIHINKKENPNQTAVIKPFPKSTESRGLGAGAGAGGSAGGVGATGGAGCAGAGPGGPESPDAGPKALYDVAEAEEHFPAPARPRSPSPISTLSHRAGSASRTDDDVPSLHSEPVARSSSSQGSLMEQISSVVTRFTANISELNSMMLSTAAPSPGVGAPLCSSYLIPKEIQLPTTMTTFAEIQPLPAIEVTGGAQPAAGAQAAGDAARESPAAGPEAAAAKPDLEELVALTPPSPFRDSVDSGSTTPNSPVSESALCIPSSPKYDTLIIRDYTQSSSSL

Structure (SMILES) | EC50 [nM] | Emax [%]
O=C1OC2(CCC2)CN1c1ccc(C#Cc2ccccc2)cn1 [Example 10, 7-(5-Phenylethynyl-pyridin-2-yl)-5-oxa-7-aza-spiro[3.4]octan-6-one] | 25 | 109
CC1(C)CN(c2ccc(C#Cc3cc(F)ccc3F)cn2)C(=O)O1 [Example 34, 3-[5-(2,5-Difluoro-phenylethynyl)-pyridin-2-yl]-5,5-dimethyl-oxazolidin-2-one] | 11 | 38
CC1(C)CCN(c2ccc(C#Cc3cccnc3)cn2)C(=O)O1 [Example 73, 6,6-Dimethyl-3-(5-pyridin-3-ylethynyl-pyridin-2-yl)-[1,3]oxazinan-2-one] | 59 | 98
CC1(C)CCN(c2cnc(C#Cc3ccccc3)cn2)C(=O)O1 [Example 168, 6,6-Dimethyl-3-(5-(phenylethynyl)pyrazin-2-yl)-1,3-oxazinan-2-one] | 15 | 41
CC1(C)CC(=O)N(c2ccc(C#Cc3ccccc3)nn2)C1 [Example 150, 4,4-Dimethyl-1-(6-(phenylethynyl)pyridazin-3-yl)pyrrolidin-2-one] | 21 | 113
O=C1OC2(CCCCC2)CN1c1ccc(C#Cc2ccccc2)cn1 [Example 12, 3-(5-Phenylethynyl-pyridin-2-yl)-1-oxa-3-aza-spiro[4.5]decan-2-one] | 67 | 80
CO[C@@H]1C(=O)N(c2ccc(C#Cc3ccccc3)cn2)CC1(C)C (single isomer, unassigned) [Example 61] | 75 | 70
CN1C(=O)N(c2ncc(C#Cc3cccc(F)c3)cc2F)CC1(C)C [Example 111] | 32 | 107
CN1C(=O)N(c2ncc(C#Cc3ccc(F)cc3)cn2)CC1(C)C [Example 125, 1-[5-(4-Fluoro-phenylethynyl)-pyrimidin-2-yl]-3,4,4-trimethyl-imidazolidin-2-one] | 13 | 44
O=C1CC2(CCCC2)CN1c1ncc(C#Cc2ccccc2)cn1 [Example 117, 2-(5-Phenylethynyl-pyrimidin-2-yl)-2-aza-spiro[4.4]nonan-3-one] | 44 | 84
CC1(C)CC(=O)N(c2ncc(C#Cc3cccc(F)c3)cn2)C1 [Example 118, 1-[5-(3-Fluoro-phenylethynyl)-pyrimidin-2-yl]-4,4-dimethyl-pyrrolidin-2-one] | 13 | 78
CC1(C)CNC(=O)N(c2ccc(C#Cc3ccccc3)cn2)C1 [Example 25, 5,5-Dimethyl-1-(5-phenylethynyl-pyridin-2-yl)-tetrahydro-pyrimidin-2-one] | 69 | 148
CC(C)N1C(=O)N(c2ccc(C#Cc3ccccc3)cn2)CC1(C)C [Example 18, 3-Isopropyl-4,4-dimethyl-1-(5-phenylethynyl-pyridin-2-yl)-imidazolidin-2-one] | 39 | 133
CC1(C)CN(c2ccc(C#Cc3ccc(F)nc3)cn2)C(=O)O1 [Example 35, 3-[5-(6-Fluoro-pyridin-3-ylethynyl)-pyridin-2-yl]-5,5-dimethyl-oxazolidin-2-one] | 54 | 52
CN1C(=O)N(c2ccc(C#Cc3cccc(F)c3)nn2)[C@@H]2CCC[C@@H]21 (racemic) [Example 174, (3aSR,6aRS)-1-[6-(3-Fluoro-phenylethynyl)-pyridazin-3-yl]-3-methyl-hexahydro-cyclopentaimidazol-2-one] | 12 | 56
CC1(C)CCN(c2cnc(C#Cc3ccccc3)cn2)C(=O)C1 [Example 163, 4,4-Dimethyl-1-(5-(phenylethynyl)pyrazin-2-yl)piperidin-2-one] | 69 | 74
CN1C(=O)N(c2ccc(C#Cc3cncnc3)cn2)CC1(C)C [Example 55, 3,4,4-Trimethyl-1-(5-pyrimidin-5-ylethynyl-pyridin-2-yl)-imidazolidin-2-one] | 54 | 110
CN1C(=O)N(c2ncc(C#Cc3ccccc3)cn2)CC12CC2 [Example 147, 4-Methyl-6-(5-phenylethynyl-pyrimidin-2-yl)-4,6-diaza-spiro[2.4]heptan-5-one] | 25 | 36
CN1C(=O)N(c2ccc(C#Cc3ccccc3)cn2)CCC1(C)C [Example 67, 3,4,4-Trimethyl-1-(5-phenylethynyl-pyridin-2-yl)-tetrahydro-pyrimidin-2-one] | 15 | 81
CC1(C)CN(c2ccc(C#Cc3ccccc3)nn2)C(=O)O1 [Example 152, 5,5-Dimethyl-3-(6-(phenylethynyl)pyridazin-3-yl)oxazolidin-2-one] | 15 | 112
CC1(C)CN(c2ccc(C#Cc3ccccc3)cn2)C(=O)O1 [Example 5, 5,5-Dimethyl-3-(5-phenylethynyl-pyridin-2-yl)-oxazolidin-2-one] | 7 | 77
CN1C(=O)N(c2ncc(C#Cc3cc(F)ccc3F)cn2)CCC1(C)C [Example 139, 5′-(2,5-Difluoro-phenylethynyl)-3,4,4-trimethyl-3,4,5,6-tetrahydro-[1,2′]bipyrimidinyl-2-one] | 57 | 54
COC1C(=O)N(c2ccc(C#Cc3ccccc3)cn2)CC1(C)C (racemic) [Example 60, (RS)-3-Methoxy-4,4-dimethyl-1-(5-phenylethynyl-pyridin-2-yl)-pyrrolidin-2-one] | 35 | 89
CC1(C)CCN(c2ccc(C#Cc3cncc(Cl)c3)cn2)C(=O)O1 [Example 75, 3-[5-(5-Chloro-pyridin-3-ylethynyl)-pyridin-2-yl]-6,6-dimethyl-[1,3]oxazinan-2-one] | 27 | 87
CN1C(=O)N(c2cnc(C#Cc3ccc(F)cc3)cn2)CC1(C)C [Example 159, 1-(5-((4-Fluorophenyl)ethynyl)pyrazin-2-yl)-3,4,4-trimethylimidazolidin-2-one] | 49 | 49
CC1(C)CCC(=O)N(c2ncc(C#Cc3ccccc3)cn2)C1 [Example 116, 5,5-Dimethyl-1-(5-phenylethynyl-pyrimidin-2-yl)-piperidin-2-one] | 41 | 101
CO[C@@H]1C(=O)N(c2ncc(C#Cc3cc(F)ccc3F)cn2)CC1(C)C (single isomer, unassigned) [Example 133, (R or S)-1-[5-(2,5-Difluoro-phenylethynyl)-pyrimidin-2-yl]-3-methoxy-4,4-dimethyl-pyrrolidin-2-one] | 57 | 49
CC1(C)CCN(c2ccc(C#Cc3cc(F)ccc3F)cn2)C(=O)C1 [Example 92, 5′-(2,5-Difluoro-phenylethynyl)-4,4-dimethyl-3,4,5,6-tetrahydro-[1,2′]bipyridinyl-2-one] | 32 | 84
CC1(C)CN(c2ccc(C#Cc3ccccc3)cn2)C(=O)N1 [Example 15, 4,4-Dimethyl-1-(5-phenylethynyl-pyridin-2-yl)-imidazolidin-2-one] | 130 | 101
CN1C(=O)N(c2ccc(C#Cc3ccc(F)cc3)cn2)CC1(C)C [Example 57, 1-[5-(4-Fluoro-phenylethynyl)-pyridin-2-yl]-3,4,4-trimethyl-imidazolidin-2-one] | 35 | 78
